Here are results for 33 molecules from the METLIN SMRT retention time set (Domingo-Almenara et al. 2019).

The nature of the data set: gradient 5% acetonitrile 3 min, to 50% in 2 min, to 85% in 15 min, held 3 min, 100 µL/min. The settings on record: column: Zorbax Extend-C18 2.1 x 50 mm; eluents: water / acetonitrile, 0.1% formic acid. The procedure, abridged:
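A Zorbax Extend-C18 column (2.1 × 50 mm, 1.8 μm) run at 100 μL/min with water and acetonitrile, both containing 0.1% formic acid, separated mixtures of ~100 pure standards. The HPLC was coupled to a quadrupole time-of-flight mass spectrometer operated in positive and negative ionization mode, with dead and dwell volumes of 40 μL and 900 μL. Each retention time was taken from a computationally picked adduct peak that was then manually inspected.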
For the molecule `Cc1ccc(NC(=O)N2C[C@@H](F)C[C@H]2C(=O)N2CCc3ccccc3C2)c(C)c1`, the RP-LC retention time was found to be 817 s. Then `O=C(c1cccc(-n2cnnn2)c1)N1CCC(c2nnc(-c3ccco3)s2)CC1`, with 651 s; and `CC(C)N1CCN(c2ccc3nnc(C4CCC4)n3n2)CC1`, with 548 s; and `CCc1cc2c(N3CCCC(C(=O)NCCCN4CCN(CC)CC4)C3)ncnc2s1` (stereo not drawn), with 579 s. Then `CC(=O)Nc1ccc(NC(=O)c2ccc3nc(-c4ccccc4)cn3c2)cc1`, with 612 s. The result for `COc1cc(-c2noc(Cn3nc4ccc(-c5ccccc5)nn4c3=O)n2)cc(OC)c1OC` reads 862 s; that for `CCN(CC)c1ccc(CNC(=O)C2CCc3nc(N4CCCCC4)ncc3C2)cc1` (stereo not drawn), 546 s; that for `COc1cc(Nc2nc(-c3nnn(-c4ccc(Br)cc4F)c3C)ns2)cc(OC)c1`, 1120 s.

`COc1ccccc1OCCNC(=O)COc1ccc(NC(=O)C2CC2)cn1` yielded an RP-LC retention time of 708 s. Then `COC(=O)c1ccc(C(=O)OC)c(NC(=O)N2CCC(CN3CCC(C)CC3)CC2)c1`, with 678 s; and `CCOC(=O)c1c(S(=O)(=O)N2CCc3ccccc3C2)c(C)n(C)c1C`, with 989 s. Then `CCOC(=O)c1c(C)oc2ncnc(Nc3ccc4c(c3)OCCO4)c12`, with 1120 s; and `Cc1ccc(C(C)NC(=O)C2CC(=O)N(c3cccc(NC(=O)C(C)C)c3)C2)c(C)c1` (stereo not drawn), with 868 s; and `O=C(c1cncc(Br)c1)N1CCC(c2nnc(-c3ccco3)s2)CC1`, with 682 s. The result for `CC1CCN(S(=O)(=O)c2ccc(-c3nnc(C(=O)NCc4ccc(Cl)cc4)o3)cc2)CC1` reads 1120 s; that for `COCCN1C(=O)c2ccccc2C(C(=O)NCCCN2CCC(C)CC2)C1c1cccs1` (stereo not drawn), 640 s; that for `CN(C)C(=O)[C@@]12CCCC[C@H]1N(CCc1ccccc1)C(=O)CC2`, 725 s. As to `CCn1cc(C(=O)NCCCOC(C)C)c(S(=O)(=O)N2CCN(c3cccc(Cl)c3)CC2)n1`, the RP-LC retention time is 1060 s. The result for `CC1CCN(CCCNC(=O)C2c3ccccc3C(=O)N(C)C2c2cccs2)CC1` (stereo not drawn) reads 624 s; that for `Cc1cc2c(cc1S(=O)(=O)N1CCCC1C(=O)N1CCc3ccccc31)OCC(=O)N2` (stereo not drawn), 788 s; that for `O=c1c2nc(-c3ccccc3)cn2ccn1-c1ccc(F)c(Cl)c1`, 853 s. The result for `NC(=O)c1cc(-c2ccccc2F)nc2ccccc12` reads 740 s.

As to `O=C(Nc1ccc(N2CCN(C3CCCC3)C2=O)nc1)c1ccccc1F`, the RP-LC retention time came out at 804 s. The result for `COc1cccc(C(=O)Nc2ccc(CC(=O)NCC(F)(F)F)cc2)c1OC` reads 764 s. `CC1CCc2cc(F)cc3c(=O)c(C(=O)O)cn1c23` (stereo not drawn) showed an RP-LC retention time of 806 s. The result for `CNc1nc(N(C)C)nc(N(C)C)n1` reads 602 s; that for `CN1C2CC(OC(=O)C(CO)c3ccccc3)CC1C1OC12` (stereo not drawn), 640 s; that for `CC(C)c1ccc(NC(=O)C2(Cc3cccnc3)CCCCC(=O)N2)cc1` (stereo not drawn), 669 s.

As for `Cn1c(N2CCC(C(=O)Nc3ccc(Cl)cc3)CC2)cc(=O)n(C)c1=O`, the RP-LC retention time came to 732 s.

The molecule `CC(C)c1cc(N2CCN(C(=O)Cc3cccs3)CC2)nc2nncn12` gave an RP-LC retention time of 613 s. `c1ccc(CNc2cc(-n3cccn3)ncn2)cc1` yielded an RP-LC retention time of 832 s. Then `COc1ccc(OC)c(CNC(=O)C2CCCN(c3nnc4cccc(C)n34)C2)c1` (stereo not drawn), with 672 s; and `CN1C(=O)CCc2cc(NS(=O)(=O)c3cccc(Cl)c3)ccc21`, with 783 s.
